Measured values published in patent publication US20240336642A1 (The General Hospital Corporation, priority 2021, published 2024).
Structures can show the parent of a compound that is named as a salt.

Columns and labels:
[1] = In vivo conversion of prodrug to parent compound
Description: FIG. 1 contains chemical schemes showing in vivo conversion of prodrug compounds 51, 52, 53 to their parent compounds 22, 1, and 1, respectively.
(§1) 20 mg/ml were obtained in 20% Captisol, allowing for intravenous delivery in the mouse stroke model.

[2] = system: experimental stroke model in mice (MCAO); assay: Mouse stroke model, filament middle cerebral artery occlusion (MCAO), infarct size; type: in vivo; conditions: 40 mg/kg i.v. in 50% Captisol, immediately after reperfusion, 24 h
Description: Studies were carried out in experimental stroke model in mice, using the filament model of middle cerebral artery occlusion (MCAO). For intraperitoneal delivery, compounds were dissolved in DMSO. A number of exemplified compounds were able to reduce infarct size when given at a dosage of 40 mg/kg.
40 mg/kg cmpd. 1 were given i.p. at time of reperfusion. Infarct size was measured at 24 hours after 60 minutes MCAO.
MCAO (Experimental Middle Cerebral Artery Ischemia and Functional Recovery) experiment: 40 mg/kg of compound delivered intraperitoneally 2 h post reperfusion, 60 minutes MCAO, sacrifice at 24 h, infarct size determined by TTC staining.

[3] = Solubility in formulation vehicles (Solutol HS-15/PEG400, Captisol); type: physicochemical; conditions: aqueous with cosolvent or surfactant or cyclodextrin
Description: Combinations of Solutol HS-15 (also known as Kolliphor HS-15) with PEG400 provided a good vehicle to solubilize the tested compounds. Specifically, 10% Solutol/90% PEG400 was used to prepare 20 mg/ml solutions of compound 1, compound 44, and compound 32. 10% Solutol/15% H2O/[…] led to 10 mg/ml solutions of the tested compounds.
as §1

[4] = biological target: h12/15-LOX (Homo sapiens (Human), UniProt P16050); assay: 12/15-LOX enzyme inhibition IC50 assay (Examples 1 and 2); type: biochemical
h12/15-LOX, sequence (P16050 whole entry): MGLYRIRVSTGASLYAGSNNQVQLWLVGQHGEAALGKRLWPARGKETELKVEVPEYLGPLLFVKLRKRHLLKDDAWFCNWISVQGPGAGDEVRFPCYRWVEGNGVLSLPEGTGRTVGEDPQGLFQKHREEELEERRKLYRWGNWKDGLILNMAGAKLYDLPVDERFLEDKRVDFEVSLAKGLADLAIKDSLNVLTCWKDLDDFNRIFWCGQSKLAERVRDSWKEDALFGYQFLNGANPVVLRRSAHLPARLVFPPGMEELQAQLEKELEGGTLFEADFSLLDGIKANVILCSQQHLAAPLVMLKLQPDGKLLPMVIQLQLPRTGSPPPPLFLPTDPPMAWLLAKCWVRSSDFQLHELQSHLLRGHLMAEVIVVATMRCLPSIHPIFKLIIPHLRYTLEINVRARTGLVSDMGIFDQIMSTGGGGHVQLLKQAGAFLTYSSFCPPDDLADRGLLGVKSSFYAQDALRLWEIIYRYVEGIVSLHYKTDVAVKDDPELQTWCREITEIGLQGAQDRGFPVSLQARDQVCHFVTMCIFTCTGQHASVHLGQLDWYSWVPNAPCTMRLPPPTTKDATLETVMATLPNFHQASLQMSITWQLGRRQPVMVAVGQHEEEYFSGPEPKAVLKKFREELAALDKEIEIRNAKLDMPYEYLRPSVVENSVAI
Description: Enzyme was then added to the cuvettes. […] The % inhibition for each test compound concentration were calculated as follows: […]

[5] = Hydrolysis of prodrug in plasma; type: in vitro ADME
Description: as §1

[6] = Aqueous solubility of exemplified compounds (Example 3); type: physicochemical

Row | SMILES | in vivo processing of prodrug [1] | infarct size reduction ([2]; hydrochloride) [%] | infarct size reduction ([2]; listed as Cmpd. 52, hydrochloride) [%] | solubility ([3]; 20% Captisol) [mg/mL] | solubility ([3]; 50% Captisol solution) [mg/mL] | IC50 [4] [nM] | hydrolysis in plasma [5] | aqueous solubility versus parent compound [6]
1 | CN(C)CCCOC(=O)N(C)c1oc(-c2cc(Cl)cc(Cl)c2Cl)nc1C#N [Compound 52, 3-(dimethylamino) propyl (4-cyano-2-(2,3,5-trichlorophenyl)oxazol-5-yl)(methyl) carbamate hydrochloride] | processed to the parent molecule, compound 1 | 31.7 | 31.7 | 20 | 27 | 1400 | – | –
2 | N#Cc1nc(-c2cc(Cl)cc(Cl)c2Cl)oc1NCCCCCOP(=O)(O)O [Compound 51, 5-((4-cyano-2-(2,3,5-trichlorophenyl)oxazol-5-yl)amino) pentyl dihydrogen phosphate] | – | – | – | – | – | > 20000 | susceptible to hydrolysis in plasma | high aqueous solubility versus parent compound 22
